Data from patent publication US5891917A, “Certain acrylonitrile-sulfonamide derivatives” (Sugen, Inc., priority 1997, dated 1999).
Like-named read-outs stand apart in the source and are kept apart here.

Experiments:
[1] = target: T1, HER2 (Homo sapiens, UniProt P04626); assay: HER2-BT474 whole cell ELISA; format: cell-based; conditions: BT-474 cells
T1 construct: a human breast tumor cell line which expresses high levels of HER2 kinase; endogenous in cells; host or cells: BT-474 human breast tumor cells
From the text: (§1) The following examples illustrate the ability of the exemplary compounds to inhibit receptor tyrosine kinases, such as HER2 and/or EGFR. The following target cells were used for cellular kinase assays: NIH3T3 clone C7 (Honegger et al., supra) engineered to over-express human EGF receptor; NIH3T3 cells engineered to over-express a chimeric receptor containing the EGFR extracellular domain and the HER2 intracellular kinase domain; the human mammary carcinoma line BT474 (ATCC HTB2) expressing HER2; and the human glioblastoma line U1242 that expresses PDGFR-beta. Growth assays were carried out using human mammary epithelial SKBR3 (ATCC HTB30) cells (SKBR3 cells over-express HER2), SKOV3 (ATCC HTB77) human ovarian cancer cell line (SKOV3 cells also over-express HER2), A431 cells (A431 cells over-express EGFR) MCF7 human breast carcinoma cells, MCF7 cells overexpressing the HER2 kinase (MCF7-HER2), NIH3T3 cells, and NIH3T3 cells overexpressing the HER2 kinase (3T3-HER2.
HER2-BT474 assays measuring whole cell HER2 activity was carried out as described below:
1. The cell line used in this assay is BT-474 (ATCC HBT20), a human breast tumor cell line which expresses high levels of HER2 kinase.
2. BT-474 is grown in an incubator with 5% CO2 at 37° C. The growth media is RPMI+10% FBS+GMS-G (Gibco supplement)+Glutamine.
(a) Grow BT474 cells in tissue culture dishes (10 cm, Corning 25020-100) to 80-90% confluence and collect using Trypsin-EDTA (0.25%, GIBCO).
(b) Resuspend the cells in fresh medium and transfer to 96-well tissue culture plates (Corning, 25806-96) at about 25,000-50,000 cells/well (100 μl/well). Incubate the cells in 5% CO2 at 37° C. overnight.
(a) Coat the ELISA plate (Corning 25805-96) with anti HER2 antibody at 0.5 μg/well in 150 μl PBS overnight at 4° C., and seal with parafilm. The antibody coated plates can be used up to 2 weeks, when stored at 4° C.
(b) On the day of use, remove the coating solution, replace with 200 μl of Blocking Buffer, shake the plate, and then remove the blocking buffer and wash the plate just before adding lysate.
(a) […] the drugs in serum-free condition. Before adding drugs, the old media is replaced with serum-free RPMI (90 μl/well)
(b) Dilute drug stock (in 100% DMSO) 1:10 with RPMI, and transfer 10 μl/well of this solution to the cells to achieve a final drug DMSO concentration at 1%. Incubate the cells in 5% CO2 at 37° C.
(c) Prepare fresh cell lysis buffer (HNTG*)
(d) After drug preincubation for two hours remove all the solution from the plate, transfer HNTG* 100 μl/well to the cells, and shake for 10 minutes.
(e) Use a 12-channel pipette to scrape the cells from the plate, and homogenize the lysate by repeat aspiration and dispensing. Transfer all the lysate to the ELISA plate and shake for 1 hour.
(f) Remove the lysate, wash the plate, add anti-pTyr (1:3,000 with TBST) 100 μl/well, and shake for 30 minutes.
(g) Remove anti-pTyr, wash the plate, add goat anti-rabbit IgG conjugated antibody (1:5,000 with TBST) 100 μl/well, and shake for 30 minutes.
(h) Remove anti-rabbit IgG antibody, wash the plate, and add fresh ABTS/H2 O2 (1.2 μl 30% H2 O2 to 10 ml ABTS) 100 μ/well to the plate to start color development, which usually takes 20 minutes.
(I) Measure OD 410 nm, Dynatec MR5000.

[2] = tested on: 3T3/HER2 cells; assay: 3T3 Growth Assay (3T3/HER2); format: cell-based
From the text: as §1
The 3T3 growth assay was carried out as follows: […]
(1) HER2C7 (engineered to express HER2) and NIH3T3C7 (as the control) cells are used for this assay. NIH3T3C7 cells are seeded at 2500 cells/well, […] in 10% CS+2 mM GLN DMEM, in a 96 well plate; HER2C7 cells are seeded at 6000 cells/well, 100 μl/well in 2% FBS+2 mM GLN DMEM, in a 96 well plate. Cells are incubated at 37° C., 5% CO2 overnight to allow for cell attachment to the plate;
(2) The […] compound is added to the cells at day 2. The compounds are prepared in the appropriate growth medium (10% CS+2 mM) GLN DMEM for NIH3T3C7 cells; 2% FBS+2 mM GLN DMEM for HER2C7 cells) in a 96 well plate, and serially diluted. A total of 100 μl/well medium of the diluted compounds is added into the cells. The total volume of each well is 200 μl. Quadruplicates (wells) and 11 concentration points are applied to each compound tested.
(3) After the cells are treated with the compound for 4 days, the cells are washed with PBS and fixed with 200 μl/well ice-cold 10% TCA for one hour at 0°-5° C. condition.
(4) Remove TCA and rinse wells 5 times with deionized water. Dry plates upside down with paper towels. Stain cells with 0.4% SRB at 100 μl/well for 10 minutes.
(5) Pour off SRB and rinse plate 5 times with 1 % acetic acid. Dry plate completely.
(6) Solubilize the dye with 10 mM Tris-base at 100 μl/well for 10 minutes on a shaker.
(7) Read the plate at dual wavelengths at 570 nm and 630 nm on Dynatech Elisa plate reader.

[3] = read-out: Growth Data: 3T3/HER2 2% FBS
[4] = read-out: Growth Data: 3T3/HER2 10% FBS

T1 sequence (P04626 23-1255): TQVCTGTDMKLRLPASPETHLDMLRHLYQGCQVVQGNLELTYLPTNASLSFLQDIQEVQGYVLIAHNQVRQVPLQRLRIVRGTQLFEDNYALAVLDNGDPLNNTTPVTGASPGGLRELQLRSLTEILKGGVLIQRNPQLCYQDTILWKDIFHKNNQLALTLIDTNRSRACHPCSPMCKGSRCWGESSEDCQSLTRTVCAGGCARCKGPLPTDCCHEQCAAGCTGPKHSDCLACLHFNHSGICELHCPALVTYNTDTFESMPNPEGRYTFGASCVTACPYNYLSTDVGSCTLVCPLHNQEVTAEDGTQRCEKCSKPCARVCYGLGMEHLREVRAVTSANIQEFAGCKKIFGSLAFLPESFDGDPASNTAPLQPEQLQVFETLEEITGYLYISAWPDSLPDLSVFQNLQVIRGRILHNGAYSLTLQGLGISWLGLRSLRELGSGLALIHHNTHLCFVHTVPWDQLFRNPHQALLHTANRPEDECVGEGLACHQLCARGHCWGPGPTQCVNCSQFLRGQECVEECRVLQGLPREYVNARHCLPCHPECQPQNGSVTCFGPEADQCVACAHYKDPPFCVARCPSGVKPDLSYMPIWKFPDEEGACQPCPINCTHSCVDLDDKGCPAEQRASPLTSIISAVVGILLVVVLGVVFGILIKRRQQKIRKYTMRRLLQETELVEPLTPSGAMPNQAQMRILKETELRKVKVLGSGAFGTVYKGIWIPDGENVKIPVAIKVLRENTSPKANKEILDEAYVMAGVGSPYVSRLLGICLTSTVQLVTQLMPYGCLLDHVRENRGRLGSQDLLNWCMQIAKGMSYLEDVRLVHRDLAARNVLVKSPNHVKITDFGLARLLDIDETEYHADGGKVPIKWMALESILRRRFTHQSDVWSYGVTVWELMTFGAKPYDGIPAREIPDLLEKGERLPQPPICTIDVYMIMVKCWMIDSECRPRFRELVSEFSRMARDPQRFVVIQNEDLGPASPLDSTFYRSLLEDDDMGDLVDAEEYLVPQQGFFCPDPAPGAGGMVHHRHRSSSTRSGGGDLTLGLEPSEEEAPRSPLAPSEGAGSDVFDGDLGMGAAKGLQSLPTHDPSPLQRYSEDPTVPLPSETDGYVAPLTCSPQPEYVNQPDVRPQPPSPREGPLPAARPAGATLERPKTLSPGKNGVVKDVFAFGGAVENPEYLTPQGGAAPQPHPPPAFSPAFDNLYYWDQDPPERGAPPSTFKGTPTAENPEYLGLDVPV

SMILES	IC50 [1] [µM]	IC50 [2, 3] [µM]	IC50 [2, 4] [µM]
CC(C)c1cc(/C=C(\C#N)S(=O)(=O)c2ccccc2)cc(C(C)C)c1O [Compound 731]	0.3	12	70
CC(C)c1cc(/C=C(\C#N)S(=O)(=O)NCc2ccccc2)cc(C(C)C)c1O [Compound 732]	1.9	15	95
N#C/C(=C\c1ccc(O)cc1Cl)S(=O)(=O)NCCCc1ccccc1 [Compound 734]	1.8	55	> 100
CC(C)(C)c1cc(/C=C(\C#N)S(=O)(=O)Cc2cccc(C(F)(F)F)c2)cc(C(C)(C)C)c1O [Compound 735]	0.3	5	22
CC(C)c1cc(/C=C(\C#N)S(=O)(=O)c2ccsc2)cc(C(C)C)c1O [Compound 738]	1.3	45	> 100
CC(C)(C)c1cc(/C=C(\C#N)S(=O)(=O)c2ccc(F)cc2)cc(C(C)(C)C)c1O [Compound 740]	0.4	3.8	20
CC(C)c1cc(/C=C(\C#N)S(=O)(=O)c2ccc(F)cc2)cc(C(C)C)c1O [Compound 741, (E)-3-(3,5-Diisopropyl-4-hydroxyphenyl)-2-(4-fluorophenylsulfonyl)acrylonitrile]	–	15	75
CC(C)(C)c1cc(/C=C(\C#N)S(=O)(=O)c2cccs2)cc(C(C)(C)C)c1O [Compound 742]	0.2	7	38
Cc1cc(/C=C(\C#N)S(=O)(=O)c2ccc(F)cc2)cc(C)c1O [Compound 744]	4.5	> 100	> 100
CC(C)(C)c1cc(/C=C(\C#N)S(=O)(=O)c2ccsc2)cc(C(C)(C)C)c1O [Compound 746]	0.3	7	40
CC(C)c1cc(/C=C(\C#N)S(=O)(=O)c2ccccn2)cc(C(C)C)c1O [Compound 747]	–	> 100	> 100
Cc1cc(/C=C(\C#N)S(=O)(=O)c2ccccc2)cc(C)c1O [Compound 748]	–	> 100	> 100

More lines, main results first:

IC50 [1] [µM]	SMILES	IC50 [2, 3] [µM]	IC50 [2, 4] [µM]
5.8	N#C/C(=C\c1ccc(O)cc1Cl)S(=O)(=O)NCc1ccccc1 [Compound 733]	60	> 100
0.8	CC(C)c1cc(/C=C(\C#N)S(=O)(=O)Cc2cccc(C(F)(F)F)c2)cc(C(C)C)c1O [Compound 736]	18	55
1	CC(C)c1cc(/C=C(\C#N)S(=O)(=O)c2cccs2)cc(C(C)C)c1O [Compound 737]	40	90
4.1	Cc1cc(/C=C(\C#N)S(=O)(=O)Cc2cccc(C(F)(F)F)c2)cc(C)c1O [Compound 739]	–	–
12.6	N#C/C(=C\c1ccc(O)c(O)c1)S(=O)(=O)c1cccs1 [Compound 743, (E)-3-(3,4-Dihydroxyphenyl)-2-[(thien-2-yl)sulfonyl]acrylonitrile]	–	–
> 50	CC(C)c1cc(/C=C(\C#N)S(=O)(=O)/C(C#N)=C/c2cc(C(C)C)c(O)c(C(C)C)c2)cc(C(C)C)c1O [Compound 745]	–	–
